Data reported in article PMC12689647, “Evaluation of bromadiolone combined with ciprofloxacin, vitamin D, aspirin, and cinnamon as an apoptosis-mediated rodenticide strategy” (Scientific Reports, 2025).
Like-named read-outs stand apart in the source and are kept apart here.

Experiments:
male wild rats = assay: Serum measurements (AST, ALT, Ca2+, RBCs, Hgb, PT); assay type: in vivo, Rattus norvegicus; conditions: oral, 21 days
Description: (§1) Adult male rats (n = 7 × 9 = 63), weighing 150–200 g, were randomized and divided into seven groups. Group I served as the control. Group II received the vehicle control (0.1 ml/100 g ethanol). Group III was treated with bromadiolone (B) at ½ LD₅₀ (0.8 mg/kg)[28]. Group IV received bromadiolone (0.8 mg/kg) + ciprofloxacin (Anti.20 mg/kg)[29]. Group V received bromadiolone (0.8 mg/kg) + ciprofloxacin (20 mg/kg) + vitamin D (Vit. D 35 mg/kg)[30]. Group VI received bromadiolone (0.8 mg/kg) + ciprofloxacin (20 mg/kg) + vitamin D (35 mg/kg) + cinnamon (Cin. 2 g/kg)[31]. Group VII received bromadiolone (0.8 mg/kg) + ciprofloxacin (20 mg/kg) + vitamin D (35 mg/kg) + aspirin (A. 150 mg/kg)[32]. All doses were administered orally to wild rats over 21 days. The chemical we used for the euthanizing process: rats were narcotized by Ketamine + xylazine injection (IP) and then sacrificed by slaughtering.
(§2) Determination of ionized calcium, RBC count, Hb, and prothrombin time (PT) was conducted at a private biochemical laboratory in Assiut, Egypt, using a Genuri KT-6400 automatic hematology analyzer (China). ALT and AST activities in blood plasma were measured using specific kits (Boehringer Mannheim, Mannheim, Germany) according to the manufacturer’s instructions. […]. The concentration of reduced glutathione (GSH) was estimated based on[37] and measured using spectrophotometry.

[1] = system: male wild rats of Rattus norvegicus; assay type: in vivo; conditions: oral; for Mortality% / Dead: one week; for Linear probit / Linear response %: probit fit; for Dead: 8 treated
Description: An approximate LD₅₀ was initially determined as a pilot study using the staircase method. Seventy adult male rats weighing 150–200 g were randomized and divided into ten groups (n = 10 × 7). Group I served as the control, while groups II, III, IV, V, VI, VII, VIII, IX, and X were treated orally with the following doses of bromadiolone, respectively: 0.3, 0.6, 0.9, 1.1, 1.2, 1.4, 1.8, 2.2, and 2.8 mg/kg b.w. The animals were observed during the first 2 h and then at 6 and 24 h for any toxic symptoms. Time to death and mortality were recorded over four days following administration. After one week, the LD₅₀ value was determined using probit analysis as described in[27].

liver of male wild rats [2] = assay: Hepatic lipid peroxidation (LPO) and reduced glutathione (GSH); assay type: in vivo, Rattus norvegicus; conditions: oral, 21 days
Description: as §1, §2

liver of male wild rats [3] = assay: Semi-quantitative scoring of histopathological lesions in the liver (H&E); assay type: in vivo, Rattus norvegicus; set-up: key to Fatty deposition / Hemorrhage / Thickening of blood vessels / Loss of liver architecture: (-) Absent lesion; (+) Slight (< 25%); (++) Moderate (from 25–50%); (+++) Severe (> 50%); conditions: liver H&E lesion score; oral, 21 days
Description: as §1
. Hematoxylin, eosin stains was applied to 5 μm-thick paraffin Sect[38]. Four categories were established based on the histological evaluation of nine liver tissue lesions: (−) no lesion, (+) mild (less than 25%), (++) moderate (between 25% and 50%), and (+++) severe (more than 50%)[39]. We examined about 5 photos for each rat in each groups; 5 × 63 = 315 photos for assessments. Examination and photography were conducted using a digital camera (ToupTek ToupView, copyright 2019, version x86, compatible with Windows XP/Vista/7/8/10, China) and a light microscope (Olympus CX31, Japan).

[4] = system: male wild rats of Rattus norvegicus; assay type: in vivo; conditions: oral, 8 treated, one week
[5] = male wild rats, probit analysis software

## O=c1oc2ccccc2c(O)c1C(CC(O)c1ccc(-c2ccc(Br)cc2)cc1)c1ccccc1 (centres unmarked) [Bromadiolone]
Male wild rats; control 4.640 ± 0.2943
  Ca2+ serum, Mean ± SE: 13.15 ± 0.9675 mg/dL
Male wild rats; control 11.08 ± 0.1956
  RBCs serum, Mean ± SE: 8.240 ± 0.5015 M/µl
Male wild rats; control 11.92 ± 0.3813
  Hgb serum, Mean ± SE: 11.4 ± 0.2358 g/dL
Male wild rats; control 21.25 ± 2.212
  PT (prothrombin time) serum, Mean ± SE: 37.43 ± 1.329 s
Male wild rats; control 92.37 ± 5.279
  AST serum, Mean ± SE: 130.8 ± 8.149 U/L
Male wild rats; control 184.8 ± 4.632
  ALT serum, Mean ± SE: 225.5 ± 1.679 U/L
[1]; dose 0.3 mg/kg b.w.
  Mortality%: 12.5%
  Linear probit: 3.6051
  Linear response %: 8.159%
[1]; dose 0.3 mg/kg b.w., probit analysis
  Observed response %: 14.286%
[1]; dose 0.6 mg/kg b.w.
  Mortality%: 25%
  Linear probit: 4.1699
  Linear response %: 20.3258%
[1]; dose 0.6 mg/kg b.w., probit analysis
  Observed response %: 14.286%
[1]; dose 0.9 mg/kg b.w.
  Dead: 3
  Mortality%: 37.5%
  Linear probit: 4.5
  Linear response %: 30.855%
[1]; dose 0.9 mg/kg b.w., probit analysis
  Observed response %: 28.571%
[1]; dose 1.1 mg/kg b.w.
  Dead: 3
  Mortality%: 37.5%
  Linear probit: 4.6635
  Linear response %: 36.8278%
[1]; dose 1.1 mg/kg b.w., probit analysis
  Observed response %: 28.571%
[1]; dose 1.2 mg/kg b.w.
  Dead: 4
  Mortality%: 50%
  Linear probit: 4.7344
  Linear response %: 39.5276%
[1]; dose 1.2 mg/kg b.w., probit analysis
  Observed response %: 42.857%
[1]; dose 1.4 mg/kg b.w.
  Dead: 4
  Mortality%: 50%
  Linear probit: 4.8599
  Linear response %: 44.4304%
[1]; dose 1.4 mg/kg b.w., probit analysis
  Observed response %: 42.857%
[1]; dose 1.8 mg/kg b.w.
  Dead: 5
  Mortality%: 62.5%
  Linear probit: 5.0647
  Linear response %: 52.578%
[1]; dose 1.8 mg/kg b.w., probit analysis
  Observed response %: 57.143%
[1]; dose 2.2 mg/kg b.w.
  Mortality%: 62.5%
  Linear probit: 5.2281
  Linear response %: 59.022%
[1]; dose 2.2 mg/kg b.w., probit analysis
  Observed response %: 57.143%
[1]; dose 2.8 mg/kg b.w.
  Dead: 8
  Mortality%: 100%
  Linear probit: 5.4246
  Linear response %: 66.4427%
[1]; dose 2.8 mg/kg b.w., probit analysis
  Observed response %: 71.429%
[1]; [5]
  LD25: 0.7264 mg/kg
  LD50: 1.6626 mg/kg
  LD75: 3.8056 mg/kg
  LD90: 8.0187 mg/kg
  LD95: 12.5257 mg/kg
  LD99: 28.9136 mg/kg
  LT25, Time: 2.187 days
  LT50, Time: 4.03 days
  LT75, Time: 7.426 days
  LT90, Time: 12.87 days
  LT95, Time: 17.89 days
  LT99, Time: 33.17 days
[1]; male wild rats, probit analysis software, listed as bromadiolone
  LD50: 1.6 mg/kg
[1]; time 1 day
  Observed response %: 12.5%
  Linear probit: 3.4617
  Linear response %: 6.209%
[1]; time 2 days
  Observed response %: 12.5%
  Linear probit: 4.2266
  Linear response %: 21.9652%
[1]; time 3 days
  Observed response %: 37.5%
  Linear probit: 4.6741
  Linear response %: 37.2284%
[1]; time 4 days
  Observed response %: 50%
  Linear probit: 4.9918
  Linear response %: 49.6729%
[1]; time 5 days
  Linear probit: 5.2381
  Linear response %: 59.4089%
[1]; time 7 days
  Observed response %: 87.5%
  Linear probit: 5.6093
  Linear response %: 72.8843%
Liver of male wild rats [2]; control 1.458 ± 0.1402
  LPO, Mean ± SE: 1.660 ± 0.1817 nmol/ mg protein
Liver of male wild rats [2]; control 10.42 ± 0.4500
  GSH, Mean ± SE: 6.953 ± 0.1538 ng/mg protein
Liver of male wild rats [3]
  Cellular infiltration: ++ ((++) Moderate (from 25–50%))
  Congested blood vessels: ++ ((++) Moderate (from 25–50%))
  Dilated blood sinusoids: + ((+) Slight (< 25%))
  Fatty deposition: -
  Features of necrosis: Karyolysis: + ((+) Slight (< 25%))
  Features of necrosis: Karyorrhexis: + ((+) Slight (< 25%))
  Features of necrosis: Pyknosis: ++ ((++) Moderate (from 25–50%))
  Hemorrhage: -
  Loss of liver architecture: -
  Necrotic areas: + ((+) Slight (< 25%))
  Thickening of blood vessels: -
  Vacuolated cytoplasm: ++ ((++) Moderate (from 25–50%))
[4]; dose 0.3 mg/kg b.w.
  Dead: 1
[4]; dose 0.6 mg/kg b.w.
  Dead: 2
[4]; dose 2.2 mg/kg b.w.
  Dead: 5
